Test results as given in PubChem BioAssay (NCI).
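These data come from cells grown in 96-well plates and exposed to compound for 48 hours at five concentrations. At the GI50, growth is halved. TGI: concentration producing complete growth inhibition.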

How the values were obtained:
Assay in all cases: inhibition of tumour cell growth, NCI panel, 48 h
SK-MEL-28 melanoma = system: SK-MEL-28 melanoma
U251 CNS = system: U251 CNS
SW-620 colon = system: SW-620 colon
EKVX NSCLC = system: EKVX NSCLC
OVCAR-8 ovarian = system: OVCAR-8 ovarian
OVCAR-3 ovarian = system: OVCAR-3 ovarian
SK-MEL-2 melanoma = system: SK-MEL-2 melanoma
IGROV1 ovarian = system: IGROV1 ovarian
RXF 393 renal = system: RXF 393 renal
SR leukemia = system: SR leukemia

Compound	TGI (SK-MEL-28 melanoma)	TGI (U251 CNS)	TGI (SW-620 colon)	TGI (EKVX NSCLC)	TGI (OVCAR-8 ovarian)	TGI (OVCAR-3 ovarian)	TGI (SK-MEL-2 melanoma)	TGI (IGROV1 ovarian)	TGI (RXF 393 renal)	GI50 (SK-MEL-28 melanoma)	GI50 (U251 CNS)	GI50 (SW-620 colon)	GI50 (EKVX NSCLC)	GI50 (OVCAR-8 ovarian)	GI50 (OVCAR-3 ovarian)	GI50 (SR leukemia)	TGI (SR leukemia)	GI50 (RXF 393 renal)	GI50 (IGROV1 ovarian)	GI50 (SK-MEL-2 melanoma)
Cc1cc(N(CCC#N)CCC#N)ccc1CC1N=C(c2ccccc2)OC1=O (stereo unspecified)	> 100 µM	> 100 µM	> 100 µM	> 100 µM	> 100 µM	> 100 µM	> 100 µM	> 100 µM	–	–	–	–	–	–	–	–	–	–	–	–
CN(CCCCN)c1ccc2c(=O)[nH][nH]c(=O)c2c1	> 100 µM	> 100 µM	> 100 µM	> 100 µM	–	> 100 µM	> 100 µM	> 73.6 µM	> 100 µM	–	–	–	–	–	–	–	–	–	–	–
Cc1ccnc(NC(c2ccccc2)c2ccc3cccnc3c2O)c1 (stereo unspecified)	> 100 µM	12.7 µM	15.6 µM	15.8 µM	16.3 µM	14 µM	–	23.3 µM	> 100 µM	13.8 µM	2.85 µM	3.86 µM	2.64 µM	3.23 µM	2.79 µM	2.7 µM	> 100 µM	7.93 µM	2.33 µM	–
COc1cc(CC2C(=O)OCC2[C@@H](OC(C)=O)c2ccc3c(c2)OCO3)c(Br)c(OC)c1OC (stereo partly specified)	> 100 µM	–	> 100 µM	> 100 µM	> 100 µM	> 100 µM	> 100 µM	> 100 µM	> 100 µM	–	–	–	–	–	–	–	> 100 µM	–	–	–
NNC(=S)NN/C=C(\C=Nc1ccccc1)[N+](=O)[O-]	> 100 µM	–	> 100 µM	> 100 µM	> 100 µM	> 100 µM	> 100 µM	> 100 µM	> 100 µM	–	–	–	–	–	–	–	–	–	–	–
COc1cc(=O)oc(/C=C/CO)c1C	> 100 µM	> 100 µM	> 100 µM	> 100 µM	> 100 µM	> 100 µM	–	> 100 µM	> 100 µM	–	–	–	–	–	–	–	> 100 µM	–	–	–
C=C(C)[C@@H]1CC[C@]2(C(=O)N3CCN(C)CC3)CC[C@]3(C)[C@H](CC[C@@H]4[C@@]5(C)CC[C@H](O)C(C)(C)[C@@H]5CC[C@]43C)[C@@H]12	3.48 µM	–	3.7 µM	4.12 µM	4.56 µM	3.49 µM	3.14 µM	3.71 µM	3.21 µM	1.8 µM	–	1.74 µM	1.92 µM	1.69 µM	1.9 µM	–	–	1.53 µM	1.93 µM	1.64 µM
C=CCn1c(=O)c(C(=O)NC(=O)OCC)cn(C2CCCCC2)c1=O	> 100 µM	> 100 µM	> 100 µM	> 100 µM	> 100 µM	> 100 µM	> 100 µM	> 100 µM	–	–	–	–	–	–	–	–	> 100 µM	–	–	–
Cc1cc(C)c(C2=NO[C@@H]3C(=O)N(c4ccc(Cc5ccc(N6C(=O)[C@H]7C(c8c(C)cc(C)cc8C)=NO[C@H]7C6=O)cc5)cc4)C(=O)[C@H]23)c(C)c1	> 100 µM	–	> 100 µM	> 100 µM	> 100 µM	> 100 µM	> 100 µM	> 100 µM	> 100 µM	–	–	–	–	–	–	–	–	–	–	–
COc1cc2oc(-c3ccc(O)cc3)cc(=O)c2c(OC)c1O	> 100 µM	> 100 µM	> 100 µM	> 100 µM	> 100 µM	> 100 µM	> 100 µM	> 100 µM	> 100 µM	–	–	–	–	–	–	–	–	–	–	–
COc1ccc(N2C(=O)C3C=CC(n4[nH]c(=O)n(Cc5ccccc5)c4=O)CC3C2=O)cc1 (stereo unspecified)	> 100 µM	> 100 µM	> 100 µM	> 100 µM	> 100 µM	> 100 µM	> 100 µM	> 100 µM	> 100 µM	–	–	–	–	–	–	–	–	–	–	–
O=c1[nH]c(-c2ccc([N+](=O)[O-])cc2)nc2ccc(Cl)cc12	> 100 µM	> 100 µM	> 100 µM	> 100 µM	> 100 µM	–	> 100 µM	> 100 µM	> 100 µM	–	–	–	–	–	–	–	–	–	–	–
CCOC(=O)Nc1cc(-c2ccc(C)c(NS(C)(=O)=O)c2)nn2c(C)nnc12	> 100 µM	–	30.9 µM	–	> 100 µM	6.56 µM	–	8.17 µM	12.9 µM	2.69 µM	–	2.42 µM	–	2.04 µM	1.36 µM	0.643 µM	> 100 µM	2.59 µM	1.57 µM	–
CC(O)c1ccc(C(O)/C(=N\NC(=O)c2ccncc2)c2nc3ccc([N+](=O)[O-])cc3[nH]c2=O)cc1 (stereo unspecified)	> 100 µM	> 100 µM	> 100 µM	–	> 100 µM	> 100 µM	–	> 100 µM	> 100 µM	–	–	–	–	–	–	–	> 100 µM	–	–	–
O=C1NC2OC(CO)C(O)C(O)C2O1 (stereo unspecified)	> 100 µM	> 100 µM	> 100 µM	> 100 µM	> 100 µM	> 100 µM	> 100 µM	> 100 µM	–	–	–	–	–	–	–	–	> 100 µM	–	–	–
CN1c2ccccc2S(=O)(=O)n2c(COc3ccccc3)nnc21	> 100 µM	> 100 µM	> 100 µM	> 100 µM	> 100 µM	> 100 µM	> 100 µM	> 100 µM	> 100 µM	–	–	–	–	–	–	–	–	–	–	–
COc1ccc(C2NC3=C(CCCC3)N2)cc1	> 100 µM	> 100 µM	–	–	> 100 µM	> 100 µM	> 100 µM	> 100 µM	–	–	–	–	–	–	–	–	> 100 µM	–	–	–
C1C[S][Ge]2([S]CCS1)[S]CCSCC[S]2	> 100 µM	–	–	–	–	–	> 100 µM	> 100 µM	–	> 100 µM	–	–	–	–	–	> 100 µM	> 100 µM	–	> 100 µM	> 100 µM
O=[N+]([O-])c1cccc([I+]c2ccccc2)c1	23.2 µM	20.3 µM	26.7 µM	–	17.6 µM	26.8 µM	35.2 µM	27 µM	–	10.5 µM	6.39 µM	6.42 µM	–	4.37 µM	11.3 µM	3.16 µM	25.9 µM	–	5.29 µM	17.8 µM
Cc1nc2cc(Nc3nc(Nc4ccc(F)cc4)nc(N4CCCC4)n3)ccc2n1Cc1ccccc1	3.92 µM	3.36 µM	3.14 µM	–	4.79 µM	3.28 µM	3.33 µM	3.48 µM	3.09 µM	1.88 µM	1.66 µM	1.66 µM	–	2.15 µM	1.77 µM	–	–	1.55 µM	1.9 µM	1.69 µM
